{
  "source": "patent US5440014A",
  "about": "“Fibronectin binding peptide” (priority 1990, dated 1995)",
  "molecules": {"B1": {"name": "Peptide S20-33 (peptide)", "peptide": "QFGGHNSVDFEEDT"}},
  "key": {"[1]": {"system": "Trypanosoma cruzi", "settings": "Ouaissi et al., 1986; cited from earlier work"}, "[2]": {"system": "spirochetes", "settings": "cited from earlier work"}, "[3]": {"system": "Treponema palladium", "settings": "Thomas et al., 1985b; cited from earlier work"}, "[4]": {"biological_target": "Human fibronectin (human, UniProt P02751, ^125 I-labeled (chloramine T iodination))", "assay": "synthetic peptide; inhibition of 125I-HFN binding to S. aureus 8325-4 cells"}},
  "data": [
    {"molecule": "RGDS", "values": [
      {"measurement": "prevention of fibronectin binding to Trypanosoma cruzi", "setting": "[1]", "result": "Binding was also prevented"},
      {"measurement": "attachment of spirochetes to cultured human cells", "setting": "[2]", "result": "blocked the attachment"},
      {"measurement": "prevention of fibronectin binding to Treponema palladium", "setting": "[3]", "result": "Binding was also prevented"}
    ]},
    {"molecule": "B1", "values": [
      {"measurement": "binding result", "setting": "[4]", "result": "no binding"}
    ]}
  ]
}
